Test results published in ChEMBL document CHEMBL5390233, “Design, synthesis and biological evaluation of 2-aminopyrimidine derivatives as potent FLT3 inhibitors” (Bioorg Med Chem Lett, 2023).

How the values were obtained:
BaF3 [1] = assay: Antiproliferative activity against mouse BaF3 cells harboring FLT3-D835V mutant assessed as inhibition of cell growth; type: functional, cell-based
MV4-11 = assay: Antiproliferative activity against human MV4-11 cells assessed as inhibition of cell growth; type: functional, cell-based
BaF3 [2] = assay: Antiproliferative activity against mouse BaF3 cells harboring FLT3-ITD mutant assessed as inhibition of cell growth; type: functional, cell-based
BaF3 [3] = assay: Antiproliferative activity against mouse BaF3 cells harboring FLT3-F691L mutant assessed as inhibition of cell growth; type: functional, cell-based
BaF3 [4] = assay: Antiproliferative activity against mouse BaF3 cells harboring FLT3-D835F mutant assessed as inhibition of cell growth; type: functional, cell-based
BaF3 [5] = assay: Antiproliferative activity against mouse BaF3 cells harboring FLT3-ITD-D835Y mutant assessed as inhibition of cell growth; type: functional, cell-based
MOLM-13 = assay: Antiproliferative activity against human MOLM-13 cells assessed as inhibition of cell growth; type: functional, cell-based
MCF7 = assay: Antiproliferative activity against human MCF7 cells assessed as inhibition of cell growth; type: functional, cell-based
HeLa = assay: Antiproliferative activity against human HeLa cells assessed as inhibition of cell growth; type: functional, cell-based
MM1.S = assay: Antiproliferative activity against human MM1.S cells assessed as inhibition of cell growth; type: functional, cell-based
[6] = Antiproliferative activity against human PBMC cells assessed as inhibition of cell growth; type: toxicity, cell-based
[7] = target: T1, Receptor-type tyrosine-protein kinase FLT3 (Homo sapiens, UniProt P36888); assay: Inhibition of wild type FLT3 (unknown origin)
T1 sequence (P36888 whole entry): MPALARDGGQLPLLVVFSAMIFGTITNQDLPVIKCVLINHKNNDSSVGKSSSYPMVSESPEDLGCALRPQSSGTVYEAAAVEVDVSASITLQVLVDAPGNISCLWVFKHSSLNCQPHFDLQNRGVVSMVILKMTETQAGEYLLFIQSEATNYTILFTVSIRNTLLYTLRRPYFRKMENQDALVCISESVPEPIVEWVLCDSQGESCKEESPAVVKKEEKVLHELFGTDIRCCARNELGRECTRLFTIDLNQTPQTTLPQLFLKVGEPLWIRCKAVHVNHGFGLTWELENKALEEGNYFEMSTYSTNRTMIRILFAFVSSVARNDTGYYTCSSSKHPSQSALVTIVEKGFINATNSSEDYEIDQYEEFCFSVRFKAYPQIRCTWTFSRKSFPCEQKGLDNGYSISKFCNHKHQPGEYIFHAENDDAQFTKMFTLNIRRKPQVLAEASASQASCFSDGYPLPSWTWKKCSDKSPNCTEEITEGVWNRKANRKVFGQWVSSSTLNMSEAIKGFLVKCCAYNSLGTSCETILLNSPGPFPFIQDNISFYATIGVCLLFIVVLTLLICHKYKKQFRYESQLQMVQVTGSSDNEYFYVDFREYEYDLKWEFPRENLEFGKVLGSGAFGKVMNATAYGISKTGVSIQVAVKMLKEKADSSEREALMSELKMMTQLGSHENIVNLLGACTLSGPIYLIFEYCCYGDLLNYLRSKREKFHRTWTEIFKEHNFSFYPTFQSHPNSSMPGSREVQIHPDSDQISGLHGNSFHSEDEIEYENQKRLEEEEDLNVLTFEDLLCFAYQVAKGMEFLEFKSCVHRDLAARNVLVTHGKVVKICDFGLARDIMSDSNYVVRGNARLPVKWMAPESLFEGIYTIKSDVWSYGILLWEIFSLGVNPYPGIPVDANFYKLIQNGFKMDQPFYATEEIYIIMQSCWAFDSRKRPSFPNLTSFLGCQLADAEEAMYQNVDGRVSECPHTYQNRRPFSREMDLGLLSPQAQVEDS

[8] = target: Receptor-type tyrosine-protein kinase FLT3 (Homo sapiens, UniProt P36888, D835Y); assay: Inhibition of FLT3 D835Y mutant (unknown origin)

CC1(COc2ccc(Nc3ncc(C(F)(F)F)c(N[C@H]4CC[C@@H](N)CC4)n3)cc2)COC1
IC50 (BaF3 [1]; baf3): 0.98 nM | IC50 (MV4-11; mv4-11): 0.83 nM | IC50 (BaF3 [2]; baf3): 0.91 nM | IC50 (BaF3 [3]; baf3): 4.2 nM | IC50 (BaF3 [4]; baf3): 0.94 nM | IC50 (BaF3 [5]; baf3): 0.95 nM | IC50 (MOLM-13): 10.6 nM | IC50 (MCF7; mcf7): 4980 nM | IC50 (HeLa; hela): 5780 nM | IC50 (MM1.S; mm1.s): 2250 nM | IC50 [6]: 7860 nM | IC50 [7]: 7.42 nM | IC50 [8]: 9.21 nM

CC1(COc2ccc(Nc3ncc(C(F)(F)F)c(NC4CCNCC4)n3)cc2)COC1
IC50 [7]: 28.9 nM | IC50 [8]: 41.7 nM

CC1(COc2ccc(Nc3ncc(C(F)(F)F)c(N4CCC(N)CC4)n3)cc2)COC1
IC50 [7]: 138 nM | IC50 [8]: 350 nM

CC1(COc2ccc(Nc3ncc(C(F)(F)F)c(N4CCOCC4)n3)cc2)COC1
IC50 [7]: 339 nM | IC50 [8]: 380 nM

CC1(COc2ccc(Nc3ncc(C(F)(F)F)c(N4CCC(O)CC4)n3)cc2)COC1
IC50 [7]: 86 nM | IC50 [8]: 142 nM

CN1CCN(c2nc(Nc3ccc(OCC4(C)COC4)cc3)ncc2C(F)(F)F)CC1
IC50 [7]: 339 nM | IC50 [8]: 686 nM

CC1(COc2ccc(Nc3ncc(C(F)(F)F)c(N[C@H]4CC[C@H](O)CC4)n3)cc2)COC1
IC50 (MV4-11; Homo sapiens, MV4-11): 7.58 nM | IC50 [7]: 29.6 nM | IC50 [8]: 64.6 nM

CC1(COc2cccc(Nc3ncc(C(F)(F)F)c(NC4CCNCC4)n3)c2)COC1
IC50 [7]: 32.1 nM | IC50 [8]: 68.7 nM

CC1(COc2ccc(Nc3ncc(C(F)(F)F)c(N4CCNCC4)n3)cc2)COC1
IC50 [7]: 231 nM | IC50 [8]: 351 nM

CC1(COc2ccc(Nc3ncc(C(F)(F)F)c(N[C@@H]4CCCNC4)n3)cc2)COC1
IC50 (MV4-11; mv4-11): 9.74 nM | IC50 [7]: 14.3 nM | IC50 [8]: 25.9 nM

CC1(COc2ccc(Nc3ncc(C(F)(F)F)c(N[C@H]4CC[C@@H](O)CC4)n3)cc2)COC1
IC50 (MV4-11; Homo sapiens, MV4-11): 42.9 nM | IC50 [7]: 9.46 nM | IC50 [8]: 9.79 nM

CC1(COc2cccc(Nc3ncc(C(F)(F)F)c(N[C@@H]4CCCNC4)n3)c2)COC1
IC50 (MV4-11; mv4-11): 17.3 nM | IC50 [7]: 16.5 nM | IC50 [8]: 24.3 nM

CC1(COc2ccc(Nc3ncc(C(F)(F)F)c(NCC4CCNCC4)n3)cc2)COC1
IC50 [7]: 32.4 nM | IC50 [8]: 40.8 nM

CC1(COc2cccc(Nc3ncc(C(F)(F)F)c(NCC4CCNCC4)n3)c2)COC1
IC50 (MV4-11; mv4-11): 6.93 nM | IC50 [7]: 11 nM | IC50 [8]: 22.4 nM

CC1(COc2ccc(Nc3ncc(C(F)(F)F)c(N[C@H]4CC[C@H](N)CC4)n3)cc2)COC1
IC50 (MV4-11; mv4-11): 26.4 nM | IC50 [7]: 29.9 nM | IC50 [8]: 27.5 nM

CCc1nc(C(N)=O)c(Nc2ccc(N3CCC(N4CCN(C)CC4)CC3)c(OC)c2)nc1NC1CCOCC1 [GILTERITINIB]
IC50 (BaF3 [1]; Mus musculus, BaF3): 0.62 nM | IC50 (MV4-11; Homo sapiens, MV4-11): 1.34 nM | IC50 (BaF3 [2]; Mus musculus, BaF3): 0.6 nM | IC50 (BaF3 [3]; Mus musculus, BaF3): 1.05 nM | IC50 (BaF3 [4]; Mus musculus, BaF3): 0.66 nM | IC50 (BaF3 [5]; Mus musculus, BaF3): 0.48 nM | IC50 (MCF7; Homo sapiens, MCF7): 1300 nM | IC50 (HeLa; Homo sapiens, HeLa): 3200 nM | IC50 (MM1.S; Homo sapiens, MM1.S): 203 nM | IC50 [6]: 7030 nM
